Measured values published in ChEMBL document CHEMBL2029234, “Sulfonyl-morpholino-pyrimidines: SAR and development of a novel class of selective mTOR kinase inhibitor” (Bioorg Med Chem Lett, 2012).
Values after ≈ are worked out from the molar mass of the structure shown.

Columns and labels:
[1] = Inhibition of Akt Ser473 phosphorylation in human MDA-MB-468 cells after 2 hrs; format: cell-based; conditions: MDA-MB-468, 2 h
[2] = Inhibition of Cytochrome P450; format: ADME
[3] = Plasma clearance in iv dosed rat; format: ADME, organism-based
[4] = Oral bioavailability in rat; format: ADME, organism-based; conditions: in vivo
[5] = target: Voltage-gated inwardly rectifying potassium channel KCNH2 (Homo sapiens, UniProt Q12809)
Voltage-gated inwardly rectifying potassium channel KCNH2, sequence (Q12809 whole entry): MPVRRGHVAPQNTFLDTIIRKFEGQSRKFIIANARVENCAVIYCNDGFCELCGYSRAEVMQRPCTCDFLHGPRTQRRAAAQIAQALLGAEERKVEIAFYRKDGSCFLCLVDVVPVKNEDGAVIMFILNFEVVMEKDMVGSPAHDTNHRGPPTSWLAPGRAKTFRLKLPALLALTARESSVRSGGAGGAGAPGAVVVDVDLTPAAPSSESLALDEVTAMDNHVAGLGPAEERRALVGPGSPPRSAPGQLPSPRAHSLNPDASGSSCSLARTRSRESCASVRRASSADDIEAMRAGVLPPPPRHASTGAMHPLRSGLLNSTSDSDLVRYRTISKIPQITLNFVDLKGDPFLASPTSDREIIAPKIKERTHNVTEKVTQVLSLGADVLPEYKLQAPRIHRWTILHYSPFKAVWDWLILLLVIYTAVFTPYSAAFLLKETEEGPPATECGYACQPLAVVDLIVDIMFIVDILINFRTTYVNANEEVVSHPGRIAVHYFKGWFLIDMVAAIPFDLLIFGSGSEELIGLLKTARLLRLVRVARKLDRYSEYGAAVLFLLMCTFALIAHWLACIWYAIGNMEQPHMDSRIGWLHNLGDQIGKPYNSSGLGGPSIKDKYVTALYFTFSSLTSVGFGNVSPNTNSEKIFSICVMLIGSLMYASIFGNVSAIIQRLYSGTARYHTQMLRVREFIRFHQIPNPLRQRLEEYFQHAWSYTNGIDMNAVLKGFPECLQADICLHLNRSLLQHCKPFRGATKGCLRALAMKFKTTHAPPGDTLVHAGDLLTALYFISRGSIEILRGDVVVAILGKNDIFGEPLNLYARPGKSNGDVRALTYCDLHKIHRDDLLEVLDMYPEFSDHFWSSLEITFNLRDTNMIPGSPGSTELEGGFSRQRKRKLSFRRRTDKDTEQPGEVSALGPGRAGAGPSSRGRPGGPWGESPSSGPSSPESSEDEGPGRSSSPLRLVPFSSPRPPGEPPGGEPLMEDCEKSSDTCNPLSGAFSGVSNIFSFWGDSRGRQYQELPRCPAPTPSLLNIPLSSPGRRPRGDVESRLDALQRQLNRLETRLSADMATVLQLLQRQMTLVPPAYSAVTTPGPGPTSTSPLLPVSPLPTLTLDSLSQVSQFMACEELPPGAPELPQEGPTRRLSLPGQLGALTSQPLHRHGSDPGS

[6] = physchem; conditions: buffer, pH 7.4
[7] = target: Serine/threonine-protein kinase mTOR (Homo sapiens, UniProt P42345); assay: Inhibition of recombinant FLAG-tagged mTOR kinase expressed in HEK293 cells using Biotin-Ahx-Lys-Lys-Ala-Asn-Gln-Val-Phe-Leu-Gly-Phe-Thr-Tyr-Val-Ala-Pro-Ser-Val-Leu-Glu-Ser-Val-Lys-Glu-NH2 as substrate after 90 mins
[8] = target: Phosphatidylinositol 4,5-bisphosphate 3-kinase catalytic subunit alpha isoform (Homo sapiens, UniProt P42336); assay: Inhibition of human recombinant PI3Kalpha expressed in baculovirus system using PI(4,5)P2 as substrate after 20 mins
Phosphatidylinositol 4,5-bisphosphate 3-kinase catalytic subunit alpha isoform, sequence (P42336 whole entry, canonical isoform): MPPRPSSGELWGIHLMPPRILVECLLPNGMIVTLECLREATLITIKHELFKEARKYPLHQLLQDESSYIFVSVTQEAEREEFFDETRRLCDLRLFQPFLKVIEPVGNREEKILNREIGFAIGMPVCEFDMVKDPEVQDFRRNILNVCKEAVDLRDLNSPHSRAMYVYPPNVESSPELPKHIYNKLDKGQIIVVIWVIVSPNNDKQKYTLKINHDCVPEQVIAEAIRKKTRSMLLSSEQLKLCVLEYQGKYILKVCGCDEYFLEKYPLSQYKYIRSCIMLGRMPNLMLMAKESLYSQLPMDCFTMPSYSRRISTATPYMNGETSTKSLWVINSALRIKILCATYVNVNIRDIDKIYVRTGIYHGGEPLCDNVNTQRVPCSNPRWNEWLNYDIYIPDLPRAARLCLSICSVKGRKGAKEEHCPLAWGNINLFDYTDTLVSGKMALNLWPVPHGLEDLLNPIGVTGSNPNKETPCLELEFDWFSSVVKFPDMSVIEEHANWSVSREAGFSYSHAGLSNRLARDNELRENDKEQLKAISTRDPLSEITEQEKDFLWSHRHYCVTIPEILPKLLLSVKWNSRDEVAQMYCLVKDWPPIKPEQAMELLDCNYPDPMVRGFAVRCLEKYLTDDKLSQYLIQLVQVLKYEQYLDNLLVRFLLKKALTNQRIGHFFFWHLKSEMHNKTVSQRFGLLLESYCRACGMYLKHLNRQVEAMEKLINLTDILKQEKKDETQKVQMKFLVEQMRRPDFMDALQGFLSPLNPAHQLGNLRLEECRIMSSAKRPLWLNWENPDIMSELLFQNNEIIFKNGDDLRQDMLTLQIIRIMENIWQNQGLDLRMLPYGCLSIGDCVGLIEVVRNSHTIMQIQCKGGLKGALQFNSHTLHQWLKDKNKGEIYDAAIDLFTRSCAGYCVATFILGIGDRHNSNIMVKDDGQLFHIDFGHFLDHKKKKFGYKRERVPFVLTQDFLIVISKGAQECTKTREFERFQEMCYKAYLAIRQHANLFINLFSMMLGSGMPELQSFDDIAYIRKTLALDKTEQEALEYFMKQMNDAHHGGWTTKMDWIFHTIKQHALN

[9] = physchem; conditions: aqueous, pH 7.4
[10] = Fraction unbound in rat plasma; format: ADME, cell-free
[11] = target: Cytochrome P450 2C9 (Homo sapiens, UniProt P11712); assay: Inhibition of CYP2C9; format: ADME
Cytochrome P450 2C9, sequence (P11712 whole entry): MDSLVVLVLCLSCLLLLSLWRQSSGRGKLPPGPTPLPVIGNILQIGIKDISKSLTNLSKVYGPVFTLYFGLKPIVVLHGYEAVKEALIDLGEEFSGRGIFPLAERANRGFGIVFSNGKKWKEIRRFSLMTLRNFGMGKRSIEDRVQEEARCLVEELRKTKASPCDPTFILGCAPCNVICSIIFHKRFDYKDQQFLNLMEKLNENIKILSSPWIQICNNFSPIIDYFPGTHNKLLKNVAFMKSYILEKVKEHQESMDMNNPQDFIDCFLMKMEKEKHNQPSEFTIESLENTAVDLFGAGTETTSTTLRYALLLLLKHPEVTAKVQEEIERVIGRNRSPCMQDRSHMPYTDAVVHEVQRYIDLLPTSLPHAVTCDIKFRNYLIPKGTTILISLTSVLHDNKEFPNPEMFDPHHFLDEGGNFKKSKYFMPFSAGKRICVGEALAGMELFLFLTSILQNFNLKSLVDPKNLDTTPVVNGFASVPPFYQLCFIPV

[12] = Volume of distribution in iv dosed rat; format: ADME, organism-based; conditions: in vivo
[13] = Apparent permeability from apical to basal side of MDCK cells; format: ADME, cell-based, Canis lupus familiaris; conditions: dog
[14] = Apparent permeability from basal to apical side of MDCK cells; format: ADME, cell-based, Canis lupus familiaris; conditions: dog

| SMILES | IC50 [1] | IC50 [2] | clearance [3] | bioavailability [4] | logD [6] | IC50 [7] | IC50 [8] | solubility [9] | fraction unbound [10] | IC50 [11] | Vd [12] | Papp A→B [13] | Papp B→A [14] | IC50 [5] |
| --- | --- | --- | --- | --- | --- | --- | --- | --- | --- | --- | --- | --- | --- | --- |
| O=S(=O)(Cc1cc(N2CCOCC2)nc(-c2ccccn2)n1)c1ccccc1 | 9.2 µM | > 10 µM | 32 mL/min/kg | 18% | 1.34 |  |  |  |  |  |  |  |  | > 32 µM |
| O=S(=O)(CCc1cnccn1)Cc1cc(N2CCOCC2)nc(-c2ccccn2)n1 | > 80 µM |  |  |  | < 0.5 | 3.16 µM | > 90 µM |  |  |  |  |  |  |  |
| CC(C)S(=O)(=O)Cc1cc(N2CCOCC2)nc(-c2ccccn2)n1 | > 30 µM |  |  |  |  | 1.54 µM | 36.7 µM |  |  |  |  |  |  |  |
| O=S(=O)(Cc1cc(N2CCOCC2)nc(-c2ccccn2)n1)c1ccc(F)cc1 | 12.4 µM |  |  |  |  | 1.38 µM | 7.6 µM |  |  |  |  |  |  |  |
| CS(=O)(=O)Cc1cc(N2CCOCC2)nc(-c2ccccc2)n1 | > 30 µM | > 10 µM | 11 mL/min/kg | 97% | 1.94 | 5 µM | > 1000 µM |  | 0.28 |  |  |  |  |  |
| Cn1ccc2cc(-c3nc(CS(C)(=O)=O)cc(N4CCOCC4)n3)ccc21 |  |  |  |  |  | > 100 µM | > 24 µM |  |  |  |  |  |  |  |
| CS(=O)(=O)Cc1cc(N2CCOCC2)nc(-c2cccc3[nH]ccc23)n1 | 6.3 µM |  |  |  | 1.7 | 1.46 µM | 14.3 µM | 13 µM (≈ 4.84 µg/mL) | 0.301 |  |  |  |  | > 33 µM |
| COCc1cccc(-c2nc(CS(C)(=O)=O)cc(N3CCOCC3)n2)c1 |  |  |  |  |  | 22.5 µM | > 300 µM |  |  |  |  |  |  |  |
| CS(=O)(=O)Cc1cc(N2CCOCC2)nc(-c2ccc3[nH]cnc3c2)n1 | 7.2 µM |  | 37 mL/min/kg | 10% |  | 0.285 µM | 1.06 µM |  |  |  |  |  |  | > 32 µM |
| CS(=O)(=O)Cc1cc(N2CCOCC2)nc(-c2ccc(NS(C)(=O)=O)cc2)n1 | > 20 µM |  | 15 mL/min/kg | 38% | 0.85 |  | > 100 µM | 11 µM (≈ 4.69 µg/mL) | > 0.66 |  |  |  |  |  |
| CS(=O)(=O)Cc1cc(N2CCOCC2)nc(-c2ccc(NC(=O)Nc3ccc(F)cc3)cc2)n1 |  |  |  |  | > 3.2 |  |  |  |  |  |  |  |  |  |

Second part, led by results:

| IC50 [1] | IC50 [2] | clearance [3] | bioavailability [4] | logD [6] | IC50 [7] | IC50 [8] | solubility [9] | fraction unbound [10] | IC50 [11] | Vd [12] | Papp A→B [13] | Papp B→A [14] | SMILES | IC50 [5] |
| --- | --- | --- | --- | --- | --- | --- | --- | --- | --- | --- | --- | --- | --- | --- |
| 1.03 µM |  | 4 mL/min/kg | 43% |  | 0.262 µM | 0.98 µM | 48 µM (≈ 17.9 µg/mL) |  |  |  |  |  | CS(=O)(=O)Cc1cc(N2CCOCC2)nc(-c2cnc3[nH]ccc3c2)n1 | > 32 µM |
| 5.7 µM |  | 4 mL/min/kg | 3% | 2.1 |  |  | 6.2 µM (≈ 2.31 µg/mL) | 0.193 | 5 µM | 0.4 L/kg | 37 ×10⁻⁶ cm/s | 34 ×10⁻⁶ cm/s | CS(=O)(=O)Cc1cc(N2CCOCC2)nc(-c2ccc3[nH]ccc3c2)n1 | > 32 µM |
| 3.4 µM |  | 25 mL/min/kg | 41% |  | 0.601 µM | 2.05 µM |  | 0.447 |  |  |  |  | CS(=O)(=O)Cc1cc(N2CCOCC2)nc(-c2cccc(CO)c2)n1 |  |
| 1.88 µM |  | 36 mL/min/kg | 33% | 2.4 |  | 22.9 µM | 192 µM (≈ 74.2 µg/mL) | 0.167 |  |  |  |  | C[C@H]1COCCN1c1cc(CS(C)(=O)=O)nc(-c2ccc3[nH]ccc3c2)n1 |  |
| 3.1 µM |  |  |  |  |  | 5.3 µM |  |  |  |  |  |  | C[C@@H]1COCCN1c1cc(CS(C)(=O)=O)nc(-c2ccc3[nH]ccc3c2)n1 |  |
| 1.9 µM |  |  |  |  | 0.252 µM | > 48 µM | 1.5 µM (≈ 0.598 µg/mL) | 0.22 |  |  |  |  | CS(=O)(=O)Cc1cc(N2CC3CCC(C2)O3)nc(-c2ccc3[nH]ccc3c2)n1 | > 32 µM |
| 5.1 µM |  |  |  | 1.74 | 0.037 µM | > 100 µM |  | 0.32 |  |  |  |  | CS(=O)(=O)Cc1cc(N2CCOCC2)nc(NC(=O)c2ccno2)n1 |  |
